For experiment [1], the system named is isolated C57BL/6 mouse hearts. The experiment in a line: Ex vivo I/R: release of injury markers (LDH, creatine kinase) into the perfusate. From the text:
Evidence supporting the methods and products of the invention has been established in an ex vivo model using hearts rapidly removed from ketamine/xylazine anesthetized 12-14 weeks old C57BL/6 mice weighing between 25-30 g that were retrograde perfused in a non-recirculating mode, using an isovolumic perfusion system through the well-known Langendorf System (FIG. 1). In this system isolated mouse hearts were initially perfused with a perfusion buffer containing KREB's solution containing (in mM) the following: 118 NaCl, 4.7 KCl, 2.5 CaCl2, 1.2 MgCl2, 25 NaHCO3, 5 Glucose, 0.4 Palmitate, 0.4 BSA, and 70 mU/1 insulin. […]
After the induced ischemia, control hearts were reperfused using the same Kreb's buffer. […] TG fatty acid (FA) composition (by weight) of the emulsion used in experiments 1-9 was determined by gas liquid chromatography and was as follows for the n-3 emulsion: C14:0, 5.4%; C16:0, 14.8%; C16:1, 8.4%; C18:0, 2.8%; C18:1, 12.7%; C18:2 (n-6), 2.6%; C18:3 (n-3), 0.8%; C20:1, 1.2%; C20:4 (n-6), 1.9%; C20:5 (EPA, n-3), 18.3%; C22:1, 0.2%; C22:4, 0.6%; C22:5, 2.6%; and C22:6 ([…], n-3), 27.7. […]
Myocardial injury was assessed by measuring the release of lactate dehydrogenase (LDH) from the effluent in the ex vivo I/R system and from blood samples in the in vivo LAD system, using the commercially available enzymatic kits (Pointe Scientific, INC, MI USA) as published earlier.^1,2 […]

Experiment [2] has as its system p10 C57BL/6J neonatal mice, cerebral H/I. The experiment in a line: Unilateral cerebral hypoxia-ischemia (H/I) in neonatal mice, TTC infarct volume at 24 hr. The conditions noted are these: pre-H/I protocol, two i.p. doses; 24 hr reperfusion. It is filed as in vivo, mouse. From the text: Three-day-old C57BL/6J neonatal mice of both genders were purchased from Jackson Laboratories (Bar Harbor, Me.) with their birth mother. The Rice-Vannucci model of H/I was used and modified to p10 neonatal mice.^5 Briefly, on postnatal day 10 H/I was induced by the ligation of the right common carotid artery, which was further cauterized and cut under isoflurane anesthesia. The investigator was blinded to the lipid emulsion treatment during the surgery and after the surgery. The entire surgical procedure was completed within 5 min for each mouse. Pups were then allowed to recover with their dams for 1.5 hr. Surrounding temperature during experiments was kept at 28° C. Mice were then exposed to systemic hypoxia for 15 min in a hypoxic chamber in a neonatal isolette (humidified 8% oxygen/nitrogen, Tech Air Inc., White Plains, N.Y.).^5 The ambient temperature inside the chamber during hypoxia was stabilized at 37±0.3° C. […]
After 24 hr of reperfusion, the animals were sacrificed by decapitation and brains were immediately harvested. […] Using Adobe Photoshop and NIH Image J imaging applications, planar areas of infarction on serial sections were summed to obtain the volume (mm^3) of infarcted tissue, which was divided by the total (infarcted+non-infarcted) volume of the hemisphere ipsilateral to carotid artery ligation, and expressed as a percentage of total volume. […]

In the case of `Cn1cc(C2=C(c3ccc(Cl)cc3Cl)C(=O)NC2=O)c2ccccc21` [SB216763], in experiment [1] (SB-216763 (3 μM) plus 0.3% n-3 TG emulsion), the “LDH release compared to I/R control hearts” value was “significantly inhibited LDH release”. Besides, the “LDH release (fold change) compared to I/R control” value in experiment [1] (inhibitor alone, from baseline through ischemia and reperfusion, 10 μM LY-294002, 3 μM SB216763) is given as “significantly inhibited LDH release”. Consider `Cc1c(C)c2c(c(C)c1O)CC[C@@](C)(CCC[C@H](C)CCC[C@H](C)CCCC(C)C)O2` [alpha-tocopherol], for which, in experiment [2], the “infarct volume compared to saline control” value is “no significant difference”.
